Calls of active or inactive are those of the source.
Legend:
Format in all cases: functional, organism-based
Bacillus subtilis = assay: Antimicrobial activity against Bacillus subtilis at 50 ug/disk by standard disk method
Staphylococcus aureus = assay: Antimicrobial activity against Staphylococcus aureus at 100 ug/disk by standard disk method
Candida albicans = assay: Antimicrobial activity against Candida albicans at 100 ug/disk by standard disk method

Measured: Activity

CC1=C/C(=C/[C@@H](C)CCC/C(C)=C/CC/C(C)=C/CCc2ccoc2)OC1=O
active: Bacillus subtilis | Staphylococcus aureus | Candida albicans

Source: ChEMBL document CHEMBL1158943, “Chemistry of Sponges, XI. 22-Deoxyvariabilin, a New Sesterterpene from the Sponge Thorecta sp” (J Nat Prod, 1991)
